In patent US11576981B2, “Acyl hydrazone linkers, methods and uses thereof” (Ontario Institute for Cancer Research (OICR), priority 2017, dated 2023):

How the values were obtained:
[1] = Half-life of model acyl hydrazones in a simulated lysosomal environment (pH 4.5); format: physicochemical; settings: read-out: Acidic (pH 4.5) Half life
From the text: Towards the goal developing enhanced control of ADC linker stability, several model cyclic acyl hydrazones whose lability is modulated either by steric or stereoelectronic effects have been prepared. Exemplary acyl hydrazones containing a substituted phenyl group adjacent to the imine carbon have been synthesized. Starting with the acyl hydrazone structure (D) present in Mylotarg, the adjacent steric and electronic environments in model linker compounds were varied and their half-life tested in a simulated lysosomal environment (pH 4.5), as shown in Table 1. […] On the other hand, incorporation of a methoxy group in the same position (as in G) rendered the cyclic hydrazone very labile with a half-life of only 2 min.

[2] = Stability of acyl hydrazones on incubation in human plasma; format: in vitro ADME; settings: 6 days incubation in human plasma; remaining parent acyl hydrazone
Method: In addition, for an ADC to have a better therapeutic window, ideally it should be stable in plasma and having the payload released only upon entry to the target cells. Thus targeted cytotoxicity would be mostly confined to the diseased cells of interest. Starting with the acyl hydrazone structure (D) present in Mylotarg, the adjacent steric and electronic environments were varied in model linker compounds and their stability was tested in plasma.

[3] = system: glioblastoma EGFR^+ U87 cell lines (U87MG engineered to overexpress wt EGFR); assay: Cell proliferation assay (SRB), EGFR^+ U87 cells; format: cell-based; settings: Homo sapiens, U-87 MG, 72 h
Method: (§1) The parental U87MG glioblastoma human tumor cell line (ATCC) and the corresponding cell line engineered to overexpress wt EGFR (EGFR^+ U87) (˜2M receptors per cell) were grown in DMEM medium containing 10% fetal bovine serum and 2 mM L-glutamine. Cells were inoculated into 96 well microtiter plates in 100 μL at a plating density of 4000 cells/well After cell inoculation, the microtiter plates were incubated at 37° C., 5% CO2, 95% air and 100% relative humidity. After 24 h incubation, experimental drugs were diluted to 10× the desired final maximum test concentration with complete medium and additional 10-fold or ½ log serial dilutions were made to provide a total of 6 drug concentrations plus control. Aliquots of 10 μl of these different drug dilutions were added to the appropriate microtiter wells already containing 100 μl of medium, resulting in the required final drug concentrations.
(§2) Following drug addition, the plates were incubated for an additional 72 h at 37° C., 5% CO2, 95% air, and 100% relative humidity. […] Bound stain was subsequently solubilized with 10 mM trizma base, and the absorbance was read on an automated plate reader at a wavelength of 515 nm. The growth was calculated at each of the drug concentrations levels relative to untreated cells (media only control).
(§3) Percentage growth inhibition was calculated as: [(Ti)/(C)]×100 […]

[4] = system: parental U87MG glioblastoma human tumor cell line; assay: Cell proliferation assay (SRB), U87 parental cells; format: cell-based; settings: U-87 MG, 72 h
Method: as §1, §2, §3

[5] = system: SKOV3 ovarian cancer cell line; assay: Cytotoxicity against SKOV3 (CellTiter-Glo ATP viability); format: cell-based; settings: ATP content
Method: SKOV3 ovarian cells are incubated with the effectors for a period corresponding to 2 to 3 times their estimated doubling time and the amount of viable cells is determine by measuring ATP content in the wells. […] All ADCs are diluted in DPBS to 6× the highest concentration tested, followed by 10 3-fold serial dilutions in DPBS for a total of 11 concentration points. Each point is added to triplicate wells. DPBS is added in wells to measure the maximum growth. Cells are diluted at their appropriate seeding density (ranging from 150 to 1000 cells per well) in complete media supplemented with glutamine 2 mM, serum and antibiotic cocktail. They are distributed in white, opaque bottom, tissue-culture treated 384 well plates and incubated for 24 hrs at 37° C.+5% CO2. […] Total ATP is measured using CellTiter-Glo reagent from Promega as recommended by the supplier. […] Signal output is measured on a luminescence plate reader (envision, Perkin Elmer) set at an integration time of 0.1 sec. […]
Each concentration point (S) is normalized to the negative control wells (NC) and expressed as % survival (NC−S/NC×100). Potency (IC50) and efficacy are calculated from a non-linear curve fit of the points versus log of the concentrations without constrain on the slope. Refined data are analysed using Prism software.

Compound | half-life [1] [min] | also measured
COc1cc(O)cc2c1/C(=N/NC(C)=O)CCC2 [G] | 2 | 
C/C(=N\NC(=O)CC(C)(C)S)c1ccc(OCCCC(=O)O)cc1 [Compound Ia, 4-(4-(1-(2-(3-Mercaptomethylbutanoyl) hydrazineylidene)ethyl)phenoxy) butanoic acid] | 15 | 
CC(C)(S)CC(=O)NN=C1CCCc2cc(OCCCC(=O)O)cc(O)c21 [Compound Ib, 4-((4-Hydroxy-5-(2-(3-mercapto-3-methylbutanoyl)hydrazono)-5,6,7,8-tetrahydronaphthalen-2-yl)oxy)butanoic acid] | 234 | 
CC(=O)N/N=C1\CCc2cccc(O)c21 [L] | 185 | % remaining after 6 days [2]: 50%
CC(=O)N/N=C1\CCCc2ccc(F)cc21 [K] | 88 | 
COc1cc2cc(c1Cl)N(C)C(=O)C[C@H](OC(=O)[C@H](C)N(C)C(=O)CCS)[C@]1(C)O[C@H]1[C@H](C)[C@@H]1C[C@@](O)(NC(=O)O1)[C@H](OC)/C=C/C=C(\C)C2 [DM1] |  | IC50 [3]: 10.3 nM; IC50 [4]: 12.3 nM
Synagis-SMCC-DM1: negative control ADC |  | IC50 [5]: 9.64 nM
COc1ccc(/C(C)=N/NC(C)=O)cc1 [D] | 15 | % remaining after 6 days [2]: 37%
CC(C)(S)CC(=O)N/N=C1\CCCc2cc(OCCCC(=O)O)ccc21 [Compound Ie, 4-((5-(2-(3-Mercapto-3-methylbutanoyl)hydrazineylidene)-5,6,7,8-tetrahydronaphthalen-2-yl)oxy)butanoic acid] | 31 | 
